Data on one compound can be found in patent US9233095B2, “Small molecule RNase inhibitors and methods of use” (University of Rochester, priority 2011, dated 2016).

One experiment concerns S. aureus RN4220. Put plainly: microdilution MIC of RnpA over- and under-producing cells. It counts as cell-based. The conditions noted are these: Staphylococcus aureus, 2.5 μM CdCl2. Here is the method:
With the exception of RN4220-derivatives, in vitro activities of RNPA1000 against bacteria were determined by the broth microdilution method according to the Clinical and Laboratory Standards Institute (CLSI) guidelines using cation adjusted Mueller-Hinton broth or MH broth supplemented with 5% lysed horse blood (for testing Streptotococcus spp.). Microtiter plates containing serial dilutions of RNPA1000 (0, 4, 8, 16, 32, 64, and 128 μg/ml) were inoculated with 10^5 colony forming units (CFU)/ml and incubated for 18 hr at 37° C. […] The MIC value for each S. aureus strain was determined to be the median score of replicate measurements (n=5). Wells containing concentrations of RNPA1000≧MIC were plated for minimal bactericidal measurement. Where possible, experiments with VRSA strains were performed in a laminar flow hood to minimize potential for equipment contamination. For RN4220 cells containing plasmid vector (pCN51), RnpA overproducing plasmid (pRNPA-S) or RnpA underproducing plasmid (pRNPA-A.S.) in vitro antimicrobial activity of RNPA1000 was performed by the microdilution method as described above, except that cells were grown in Tryptic Soy Broth medium supplemented with 2.5 μM CdCl2 and 0, 1, 2, 4, 8, 16, 32, 64, or 128 μg/ml RNPA1000. Time-kill assays were also performed to monitor the antimicrobial properties of RNPA1000 for S. aureus strain UAMS-1 in the absence and presence of 0.25, 0.5, 2, and 4 times the strain's MIC for oxacillin (1 μg/ml), rifampicin (0.5 μg/ml), vancomycin (2 μg/ml), or daptomycin (1 μg/ml). […]
To assess whether the susceptibility of S. aureus to RNPA1000 was attributable to the inhibition of cellular RnpA, the mRNA turnover properties of S. aureus that were challenged with a sub-inhibitory concentration of RnpA-inhibitor (0.5× MIC) were directly measured. […] To more directly determine whether RNPA1000's antimicrobial effects are mediated through cellular inhibition of RnpA, the RNPA1000 susceptibility of S. aureus RnpA over- and under-producing cells was assessed. […]
In general terms: Broth dilution looks for growth in wells or tubes with falling amounts of substance.

The next experiment relates to E. faecium. Put plainly: CLSI broth microdilution MIC. To be noted: for MIC: Enterococcus faecium. The class given is cell-based, Enterococcus faecium. The source says:
(§1) In some examples, compounds can be further assayed using the Mueller Hinton (MH) broth antibacterial assay as specified by the Clinical and Laboratory Standards Institute MIC broth microdilution protocol (see Methods for Dilution Antimicrobial Susceptibility Tests for Bacteria That Grow Aerobically; Approved Standard, In The Clinical and Laboratory Standards Institute (CLSI, formerly NCCLS), 7th ed., January 2006, 26 (2), M7-A7; see also Performance Standards for Antimicrobial Susceptibility Testing; Eighteenth Informational Supplement, In The Clinical and Laboratory Standards Institute (CLSI, formerly NCCLS), January 2008, 28 (1), M100-S18).
(§2) With the exception of RN4220-derivatives, in vitro activities of RNPA1000 against bacteria were determined by the broth microdilution method according to the Clinical and Laboratory Standards Institute (CLSI) guidelines using cation adjusted Mueller-Hinton broth or MH broth supplemented with 5% lysed horse blood (for testing Streptotococcus spp.). Microtiter plates containing serial dilutions of RNPA1000 (0, 4, 8, 16, 32, 64, and 128 μg/ml) were inoculated with 10^5 colony forming units (CFU)/ml and incubated for 18 hr at 37° C. […] The MIC value for each S. aureus strain was determined to be the median score of replicate measurements (n=5). Wells containing concentrations of RNPA1000≧MIC were plated for minimal bactericidal measurement. Where possible, experiments with VRSA strains were performed in a laminar flow hood to minimize potential for equipment contamination. For RN4220 cells containing plasmid vector (pCN51), RnpA overproducing plasmid (pRNPA-S) or RnpA underproducing plasmid (pRNPA-A.S.) in vitro antimicrobial activity of RNPA1000 was performed by the microdilution method as described above, except that cells were grown in Tryptic Soy Broth medium supplemented with 2.5 μM CdCl2 and 0, 1, 2, 4, 8, 16, 32, 64, or 128 μg/ml RNPA1000. Time-kill assays were also performed to monitor the antimicrobial properties of RNPA1000 for S. aureus strain UAMS-1 in the absence and presence of 0.25, 0.5, 2, and 4 times the strain's MIC for oxacillin (1 μg/ml), rifampicin (0.5 μg/ml), vancomycin (2 μg/ml), or daptomycin (1 μg/ml). The indicated amount of RNPA1000 and/or commercial antibiotic were added to mid-exponential phase (2×10^8 cfu/ml) S. aureus strain UAMS-1 cells and incubated at 37° C. Aliquots were removed at 0, 2, 4, 8, and 24 hr post-antimicrobial challenge, serial diluted, and plated to enumerate resulting cfu/ml. All time-kill assays were repeated at least 3 times.

A further experiment concerns E. faecium (VRE). Description: CLSI broth microdilution MIC. To be noted: for MIC: Enterococcus faecium. The class given is cell-based, Enterococcus faecium.
Source text: as §1, §2

For another experiment, the system named is A. baumannii. Description: CLSI broth microdilution MIC. The class given is cell-based, Acinetobacter baumannii.
Source text: as §1, §2

A word on the MIC: it is the least concentration at which growth counts as inhibited.

In brackets after ≈: the same amount, converted by molar mass. Read-outs that look alike come from different tables or passages of the source. Where only a bound is given, the exact number is not on record here.

As to `Cc1cc(/C=C(/C#N)C(=O)Nc2cccc(Br)c2)c(C)n1-c1ccc(C(=O)O)cc1` [RNPA1000], the MIC in the experiment with S. aureus RN4220 (RN4220, RN4220 RnpA overproducing cells) came out at 32 µg/mL; in the experiment with S. aureus RN4220 (RN4220, RN4220 RnpA underproducing cells (antisense)), 8 µg/mL; in the experiment with S. aureus RN4220 (RN4220, RN4220 vector containing cells (pCN51)), 32 µg/mL; in the experiment on E. faecium (E. faecium Isolate 1, read-out: MIC), 64 µg/mL (≈ 138 µM); with E. faecium (E. faecium Isolate 2, read-out: MIC) it was 64 µg/mL (≈ 138 µM); with E. faecium (E. faecium Isolate 3, read-out: MIC), 64 µg/mL (≈ 138 µM). The MIC in the experiment with E. faecium (E. faecium Isolate 4, read-out: MIC) came to 64 µg/mL (≈ 138 µM); in the experiment on E. faecium (E. faecium Isolate 5 + reserpine (efflux pump inhibitor)), 32 µg/mL; in the experiment with E. faecium (E. faecium Isolate 5, read-out: MIC), 64 µg/mL (≈ 138 µM); in the experiment on E. faecium (VRE) (E. faecium (VRE) Isolate 1), 64 µg/mL (≈ 138 µM); against E. faecium (VRE) (E. faecium (VRE) Isolate 2) it was 64 µg/mL (≈ 138 µM); in the experiment on E. faecium (VRE) (E. faecium (VRE) Isolate 3), 32 µg/mL (≈ 68.9 µM). In addition, the MIC in the experiment on E. faecium (VRE) (E. faecium (VRE) Isolate 4) was 64 µg/mL (≈ 138 µM); in the experiment with E. faecium (VRE) (E. faecium (VRE) Isolate 5), 32 µg/mL (≈ 68.9 µM); in the experiment with A. baumannii (A. baumannii Isolate 2), over 64 µg/mL; in the experiment with A. baumannii (A. baumannii Isolate 3) it was over 64 µg/mL; in the experiment on A. baumannii (A. baumannii Isolate 4), over 64 µg/mL; with A. baumannii (A. baumannii Isolate 5) it was over 64 µg/mL. For the same compound, the MIC in the experiment with A. baumannii (A. baumannii Isolate 5 + reserpine) and with A. baumannii (Acinetobacter baumannii) was over 64 µg/mL throughout. For the same compound, the “antimicrobial activity in words” value with E. faecium and in the experiment on E. faecium (VRE) was “mild activity” each time. Besides, the “effect of efflux inhibitor reserpine on RNPA1000 susceptibility” value with A. baumannii was “no effect”. For the same compound, the effect on growth entry in the experiment with A. baumannii is listed as “did not affect”.
